# Where two headings read alike, the source gives them in different places.
# Legend:
# [1] = Blood-brain barrier assay of Compound AST-2870 (plasma and brain concentration, PK); type: in vivo, CD-1 mice
# Experimental: Three CD-1 mice were administered 10 mg/kg of test Compound AST-2870 by intraperitoneal injection at each time point. Blood and brain tissues were taken at 5 min, 15 min, 30 min, 1 h, 1.5 h, and 2 h after administration, and the concentration of the test substance in the samples was determined by LC/MS method. The corresponding results of the concentrations of Compound AST-2870 in blood and brain tissue versus time were made into a curve graph, as shown in FIG. 37. The corresponding test results of the ratio of the concentration of the Compound AST-2870 in brain tissue and blood versus time were made into a curve graph, as shown in FIG. 38.
# H460 cells = assay: Inhibition of H460 cancer cell proliferation (CTG, 72 h); type: cell-based; conditions: Homo sapiens, NCI-H460
# Experimental: (§1) If not otherwise specified, IC50 values were measured by the following experimental methods:
# c) The cell suspension was added to 96-well plate with 100 μL per well and 2000 cells/well of cell density.
# (§2) a) Cells were plated for 24 hours, and then the compounds acted singly. 99 μL of growth medium was supplemented per well, and then 1 μL of 200× compound was added, gently shaken to ensure uniform mixing, and then placed in a 37° C., 5% CO2 incubator.
# (§3) b) The cell plate was placed in the incubator for 72 hours.
# (§4) b) 100 μL of CTG reagent (CelltiterGlo kit) was added to each well, the plate was placed in a rapid oscillator and shaken for 2 minutes, and then placed at room temperature for 30 minutes away from light.
# c) The chemiluminescence signal value was read with Envision instrument.
# (§5) The IC50 was calculated using GraphPad Prism 8 software and the IC50 (half inhibitory concentration) of the compounds was obtained using the following non-linear fitting formula: […]
# SNU354 = assay: Cytotoxicity on hepatocellular carcinoma cell line SNU354; type: cell-based; conditions: for IC50: Homo sapiens, SNU-354
# Experimental: as §1, §2, §3, §4, §5
# (§6) Using the same experimental methods as described above, Compounds A, B and C were further tested for cytotoxicity against different hepatocellular carcinoma (HCC) cell lines SNU354, SNU886, MHCC97H and huH-1, and the results were shown in Table 2 below: […]
# SNU886 = assay: Cytotoxicity on hepatocellular carcinoma cell line SNU886; type: cell-based; conditions: for IC50: SNU-886
# Experimental: as §1, §2, §3, §4, §5, §6
# MHCC97H = assay: Cytotoxicity on hepatocellular carcinoma cell line MHCC97H; type: cell-based; conditions: for IC50: Homo sapiens
# Experimental: as §1, §2, §3, §4, §5, §6
# huH-1 = assay: Cytotoxicity on hepatocellular carcinoma cell line huH-1; type: cell-based; conditions: for IC50: Homo sapiens, HuH-1
# Experimental: as §1, §2, §3, §4, §5, §6
# H460 cancer cells = assay: H460 proliferation in the presence or absence of AKR1C3 inhibitor AST-3021 (Alamar Blue); type: cell-based, human; conditions: for IC50: Homo sapiens, NCI-H460, H460, 2 hours exposure; for Fold: IC50 with AST-3021 over IC50 without
# Experimental: The tested compound was then added. The compound was dissolved in 100% DMSO at 200 times of the desired final test concentration. When the medicament was added, the compound was further diluted to 4 times of the desired final test concentration by using the complete medium. 50 μL of aliquots of the compound with specific concentration were added to the microwells containing 150 μL of medium, and then the final medicament concentration was obtained. […] The medicament was then washed. […] After the incubation was finished, the Alamar Blue was used to analyze and quantify the living cells.
# [2] = brain tissues, 10 mg/kg intraperitoneal injection, Mean
# [3] = plasma, 10 mg/kg intraperitoneal injection, Mean
# [4] = no AKR1C3 inhibitor, read-out: IC50 Without the addition of AST-3021
structure (smiles),measurement,setting,value
CC(OP(=O)(N1CC1)N1CC1)c1ccc([N+](=O)[O-])c(Oc2cccc(C(=O)N(C)C)c2)c1 (stereo not drawn) [AST-2870],concentration in brain,"[1]; 10 mg/kg i.p., after 30 minutes",lower than the lower limit of quantitation
same,blood-brain barrier penetration,[1]; 10 mg/kg intraperitoneal injection,could not cross the blood-brain barrier
same,AUCInf Ratio (Brain/Plasma),"[1]; 10 mg/kg intraperitoneal injection, Mean",0.0227
same,AUCInf,[1]; [2],16.5 ng·h/g
same,AUClast,[1]; [2],16.3 ng·h/g
same,Tmax,[1]; [2],4.8 min
same,T½,[1]; [2],4.48 min
same,AUCInf,[1]; [3],725 ng·h/mL
same,AUClast,[1]; [3],725 ng·h/mL
same,Cmax,[1]; [3],4023 ng/mL
same,T½,[1]; [3],9 min
O=[N+]([O-])c1ccc([C@H](OP(=O)(N2CC2)N2CC2)C(F)(F)F)cc1Oc1ccc(-c2ccc(F)cc2)c(F)c1 [B],IC50,H460 cells,8.77 nM
same,IC50,SNU354,754 nM
same,IC50,SNU886,378 nM
same,IC50,MHCC97H,242 nM
same,IC50,huH-1,258 nM
same,IC50,H460 cancer cells; [4],3.73 nM
same,Fold,H460 cancer cells,513.28
O=[N+]([O-])c1ccc([C@@H](OP(=O)(N2CC2)N2CC2)C(F)(F)F)cc1Oc1ccc(-c2ccc(F)cc2)c(F)c1 [C],IC50,H460 cells,23.4 nM
same,IC50,SNU354,1520 nM
same,ratio C/B,SNU354; IC50 ratio,2.01
same,ratio C/B,SNU886; IC50 ratio,2.23
same,IC50,SNU886,843 nM
same,IC50,MHCC97H,563 nM
same,ratio C/B,MHCC97H; IC50 ratio,2.32
same,IC50,huH-1,269 nM
same,ratio C/B,"huH-1; IC50 ratio, huH-1",1.49
same,IC50,"H460 cancer cells; AST-3021 3 micromolar, read-out: IC50 With the addition of AST-3021",3330 nM
same,IC50,H460 cancer cells; [4],7.66 nM
same,Fold,H460 cancer cells,434.76
